Experiments:
CDK2/Cyclin A = CDK2/Cyclin A (Homo sapiens, UniProt P24941); assay: Inhibition of CDK2/Cyclin A Retinoblastoma Kinase Activity; assay type: biochemical; settings: 0.03 μM compound; Table 4
How it was run: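 Percent inhibition is calculated against DMSO-only wells after subtracting no-enzyme background. The enzyme is human CDK2 complexed with proteolyzed cyclin A, used at 10 nM or 19 nM on an Rb fragment with 25 μM [32/33P]ATP, at pH 7.4 and 30° C.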

[1] = target: human CDK4 and genetically truncated (1-264) cyclin D3 (Homo sapiens, UniProt P11802); assay: Inhibition of CDK4/Cyclin D Retinoblastoma Kinase Activity; assay type: biochemical; settings: 0.03 μM compound; Table 4
Sequence of human CDK4 and genetically truncated (1-264) cyclin D3 (P11802 whole entry, the tested form may be a part): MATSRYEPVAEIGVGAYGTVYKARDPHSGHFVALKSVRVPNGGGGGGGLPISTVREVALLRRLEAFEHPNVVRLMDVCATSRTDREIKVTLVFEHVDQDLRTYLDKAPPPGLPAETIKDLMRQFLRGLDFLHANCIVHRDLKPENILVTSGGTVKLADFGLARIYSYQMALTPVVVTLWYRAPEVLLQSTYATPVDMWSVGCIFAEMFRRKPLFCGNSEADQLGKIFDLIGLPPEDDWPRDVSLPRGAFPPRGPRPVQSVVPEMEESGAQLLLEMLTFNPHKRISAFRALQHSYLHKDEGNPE
Sequence of human CDK4 and genetically truncated (1-264) cyclin D3 (P30281 1-264 partner): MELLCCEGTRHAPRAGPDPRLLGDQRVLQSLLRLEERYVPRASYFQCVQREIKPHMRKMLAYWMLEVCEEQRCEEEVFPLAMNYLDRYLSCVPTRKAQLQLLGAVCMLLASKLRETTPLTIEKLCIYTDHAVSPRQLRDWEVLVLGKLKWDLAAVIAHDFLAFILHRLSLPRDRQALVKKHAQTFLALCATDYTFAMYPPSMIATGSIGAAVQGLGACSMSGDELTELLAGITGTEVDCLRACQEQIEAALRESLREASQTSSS
How it was run: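 Apparent Ki values derive from fitting activity at varied inhibitor concentrations to a competitive (or competitive tight-binding) model. Kinase reactions used 5 nM CDK4/cyclin D3(1-264), Rb fragment substrate and 25 μM ATP. Incubation ran 20 min at 30 °C, extended to 60 min under linear conditions for tight binders.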

HCT-116 cell line = assay: Inhibition of cell growth, tetrazolium salt (MTT) assay; assay type: cell-based; settings: HCT-116, Table 4; for HCT-116 % Inhibition at 0.1 μM: 0.1 μM compound; for HCT-116 % Inhibition at 0.25 μM: 0.25 μM compound
How it was run: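 First, cells were seeded in McCoy's 5A medium and held 4 h. Next, inhibitor concentrations in 0.5% (v/v) DMSO were applied for three to five days at 37° C, 5% CO2. Finally, after 4 h with 0.2 mg/mL MTT and medium removal, solubilized formazan was measured at 540 nm.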

| Compound | CDK2 % Inhibition at 0.03 μM (CDK2/Cyclin A) [%] | CDK4 % Inhibition at 0.03 μM [1] [%] | HCT-116 % Inhibition at 0.1 μM (HCT-116 cell line) [%] | HCT-116 % Inhibition at 0.25 μM (HCT-116 cell line) [%] |
| --- | --- | --- | --- | --- |
| Nc1nc(NC2CCN(C(=O)c3cc([N+](=O)[O-])cc([N+](=O)[O-])c3)CC2)sc1C(=O)c1c(F)cccc1F [Example Q70] | 19 | 38 | 5 | 26 |
| Nc1nc(NC2CCN(C(=O)c3ccc([N+](=O)[O-])cc3)CC2)sc1C(=O)c1c(F)cccc1F [Example Q71] | 28 | 61 | 2 | 30 |
| COc1ccc(CC(=O)N2CCC(Nc3nc(N)c(C(=O)c4c(F)cccc4F)s3)CC2)cc1OC [Example Q72] | 18 | 43 | 8 | 29 |
| Nc1nc(NC2CCN(C(=O)c3ccc(F)c(F)c3)CC2)sc1C(=O)c1c(F)cccc1F [Example Q73] | 52 | 78 | 3 | 33 |
| Nc1nc(NC2CCN(C(=O)c3cccc4c3-c3ccccc3C4=O)CC2)sc1C(=O)c1c(F)cccc1F [Example Q74] | 2 | 19 | 3 | 35 |
| Nc1nc(NC2CCN(C(=O)COCc3ccccc3)CC2)sc1C(=O)c1c(F)cccc1F [Example Q75] | 9 | 20 | 5 | 39 |
| CC(=O)OCC(=O)N1CCC(Nc2nc(N)c(C(=O)c3c(F)cccc3F)s2)CC1 [Example Q76] | 27 | 31 | 4 | 36 |
| N#Cc1cccc(C(=O)N2CCC(Nc3nc(N)c(C(=O)c4c(F)cccc4F)s3)CC2)c1 [Example Q77] | 44 | 72 | 8 | 33 |
| COc1ccc(OC)c(CC(=O)N2CCC(Nc3nc(N)c(C(=O)c4c(F)cccc4F)s3)CC2)c1 [Example Q78] | 39 | 46 | 0.43 | 37 |
| COc1cccc(CC(=O)N2CCC(Nc3nc(N)c(C(=O)c4c(F)cccc4F)s3)CC2)c1 [Example Q79] | 51 | 59 | 5 | 33 |
| Nc1nc(NC2CCN(C(=O)c3cccnc3)CC2)sc1C(=O)c1c(F)cccc1F [Example Q80] | 20 | 50 | 10 | 27 |
| Nc1nc(NC2CCN(C(=O)c3ccncc3)CC2)sc1C(=O)c1c(F)cccc1F [Example Q81] | 6 | 19 | 4 | 37 |
| Nc1nc(NC2CCN(C(=O)OCC3c4ccccc4-c4ccccc43)CC2)sc1C(=O)c1c(F)cccc1F [Example Q82] | −12 | 15 | 0 | 28 |
| Nc1nc(NC2CCN(C(=S)Oc3ccccc3)CC2)sc1C(=O)c1c(F)cccc1F [Example Q83] | 72 | 55 | 2 | 25 |
